Results reported in ChEMBL document CHEMBL1201861, “Genomics of Drug Sensitity in Cancer screening data, Wellcome Trust Sanger Institute”.
pIC50: −log10 of the molar value.

What was measured:
Test in all cases: cells
Type in all cases: functional, cell-based, Homo sapiens
LB373-MEL-D = conditions: Homo sapiens, LB373-MEL-D;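 note: growth inhibition of the cell line, read out in a cell viability assay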
Description: SANGER: Inhibition of human LB373-MEL-D cell growth in a cell viability assay.

J-RT3-T3-5 = conditions: Homo sapiens, J-RT3-T3-5;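 note: cell viability assay measuring growth inhibition of human J-RT3-T3-5 cells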
Description: SANGER: Inhibition of human J-RT3-T3-5 cell growth in a cell viability assay.

SNU-C2B = conditions: Homo sapiens, SNU-C2B;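 note: cell viability readout used to measure compound-driven suppression of SNU-C2B cell proliferation, IC50 marking half-maximal growth inhibition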
Description: SANGER: Inhibition of human SNU-C2B cell growth in a cell viability assay.

KINGS-1 = conditions: Homo sapiens, KINGS-1;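 note: cell viability assay measuring suppression of KINGS-1 cell growth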
Description: SANGER: Inhibition of human KINGS-1 cell growth in a cell viability assay.

MOLT-4 = conditions: Homo sapiens, MOLT-4;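 note: growth inhibition of MOLT-4 cells, determined with a cell viability readout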
Description: SANGER: Inhibition of human MOLT-4 cell growth in a cell viability assay.

EW-13 = conditions: Homo sapiens, EW-13;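 note: growth inhibition of EW-13 cells, read out with a cell viability assay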
Description: SANGER: Inhibition of human EW-13 cell growth in a cell viability assay.

NCI-H1770 = conditions: Homo sapiens, NCI-H1770;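 note: growth inhibition of NCI-H1770 cells determined with a viability readout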
Description: SANGER: Inhibition of human NCI-H1770 cell growth in a cell viability assay.

A101D = conditions: Homo sapiens, A101D;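 note: growth inhibition of the cell line, measured with a viability assay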
Description: SANGER: Inhibition of human A101D cell growth in a cell viability assay.

A704 = conditions: Homo sapiens, A704;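 note: growth inhibition of human A704 cells, read out with a cell viability assay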
Description: SANGER: Inhibition of human A704 cell growth in a cell viability assay.

SW 962 = conditions: Homo sapiens, SW 962;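 note: growth inhibition of human SW962 cells, read out by a cell viability assay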
Description: SANGER: Inhibition of human SW962 cell growth in a cell viability assay.

SK-NEP-1 = conditions: Homo sapiens, SK-NEP-1;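 note: growth inhibition of human SK-NEP-1 cells, read out by a cell viability assay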
Description: SANGER: Inhibition of human SK-NEP-1 cell growth in a cell viability assay.

CTV-1 = conditions: Homo sapiens, CTV-1;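 note: growth inhibition of the cell line, read out with a cell viability assay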
Description: SANGER: Inhibition of human CTV-1 cell growth in a cell viability assay.

MFM-223 = conditions: Homo sapiens, MFM-223
Description: SANGER: Inhibition of human MFM-223 cell growth in a cell viability assay.

GT3TKB = conditions: Homo sapiens, GT3TKB;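 note: growth inhibition of the cell line, read out with a cell viability assay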
Description: SANGER: Inhibition of human GT3TKB cell growth in a cell viability assay.

MHH-PREB-1 = conditions: Homo sapiens, MHH-PREB-1;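 note: cell viability assay measuring inhibition of proliferation of human MHH-PREB-1 cells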
Description: SANGER: Inhibition of human MHH-PREB-1 cell growth in a cell viability assay.

D-392MG = conditions: Homo sapiens, D-392MG
D-263MG = conditions: Homo sapiens, D-263MG
Description: SANGER: Inhibition of human D-263MG cell growth in a cell viability assay.

HOP-62 = conditions: Homo sapiens, HOP-62;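 note: cell growth inhibition determined with a viability assay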
Description: SANGER: Inhibition of human HOP-62 cell growth in a cell viability assay.

BT-474 = conditions: Homo sapiens, BT-474
Description: SANGER: Inhibition of human BT-474 cell growth in a cell viability assay.

MLMA = conditions: Homo sapiens, MLMA;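 note: growth inhibition of MLMA cells (human), determined through a cell viability readout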
Description: SANGER: Inhibition of human MLMA cell growth in a cell viability assay.

OCI-AML2 = conditions: Homo sapiens, OCI-AML2;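 note: growth inhibition of OCI-AML2 cells, read out with a cell viability assay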
Description: SANGER: Inhibition of human OCI-AML2 cell growth in a cell viability assay.

EKVX = conditions: Homo sapiens, EKVX;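 note: growth inhibition of human EKVX cells, read out with a cell viability assay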
Description: SANGER: Inhibition of human EKVX cell growth in a cell viability assay.

IST-MES1 = conditions: Homo sapiens, IST-MES1;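 note: growth inhibition of IST-MES1 cells, measured with a cell viability assay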
Description: SANGER: Inhibition of human IST-MES1 cell growth in a cell viability assay.

OS-RC-2 = conditions: Homo sapiens, OS-RC-2;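 note: growth inhibition of human OS-RC-2 cells, measured by a cell viability assay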
Description: SANGER: Inhibition of human OS-RC-2 cell growth in a cell viability assay.

EW-1 = conditions: Homo sapiens, EW-1
Description: SANGER: Inhibition of human EW-1 cell growth in a cell viability assay.

LAMA-84 = conditions: Homo sapiens, LAMA-84;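 note: growth inhibition of LAMA-84 cells, read out with a cell viability assay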
Description: SANGER: Inhibition of human LAMA-84 cell growth in a cell viability assay.

DMS-79 = conditions: Homo sapiens, DMS-79;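 note: growth inhibition measured with a cell viability assay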
Description: SANGER: Inhibition of human DMS-79 cell growth in a cell viability assay.

CW-2 = conditions: Homo sapiens, CW-2;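 note: growth inhibition of CW-2 cells, read out by a cell viability assay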
Description: SANGER: Inhibition of human CW-2 cell growth in a cell viability assay.

PSN1 = conditions: Homo sapiens, PSN1;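 note: suppression of growth of human PSN1 cells, read out by a cell viability assay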
Description: SANGER: Inhibition of human PSN1 cell growth in a cell viability assay.

EOL1 = conditions: Homo sapiens, EOL1;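 note: growth inhibition of EoL-1 cells, read out by a cell viability assay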
Description: SANGER: Inhibition of human EoL-1-cell cell growth in a cell viability assay.

LXF-289 cell line = conditions: Homo sapiens, LXF-289
Description: SANGER: Inhibition of human LXF-289 cell growth in a cell viability assay.

RPMI-8226 = conditions: Homo sapiens, RPMI-8226
Description: SANGER: Inhibition of human RPMI-8226 cell growth in a cell viability assay.

KMOE-2 = conditions: Homo sapiens, KMOE-2;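 note: growth inhibition of human KMOE-2 cells, read out with a cell viability assay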
Description: SANGER: Inhibition of human KMOE-2 cell growth in a cell viability assay.

KURAMOCHI = conditions: Homo sapiens, KURAMOCHI;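 note: growth inhibition of KURAMOCHI cells, read out with a cell viability assay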
Description: SANGER: Inhibition of human KURAMOCHI cell growth in a cell viability assay.

NCI-H1355 = conditions: Homo sapiens, NCI-H1355;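 note: growth inhibition of human NCI-H1355 cells, read out by a cell viability assay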
Description: SANGER: Inhibition of human NCI-H1355 cell growth in a cell viability assay.

SW982 = conditions: Homo sapiens, SW982;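 note: growth inhibition of SW982 cells, read out with a cell viability assay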
Description: SANGER: Inhibition of human SW982 cell growth in a cell viability assay.

BB65-RCC = conditions: Homo sapiens, BB65-RCC;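 note: growth inhibition of the cell line, measured with a cell viability assay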
Description: SANGER: Inhibition of human BB65-RCC cell growth in a cell viability assay.

HT-144 = conditions: Homo sapiens, HT-144
Description: SANGER: Inhibition of human HT-144 cell growth in a cell viability assay.

RKO = conditions: Homo sapiens, RKO;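 note: growth inhibition of human RKO cells, read out with a cell viability assay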
Description: SANGER: Inhibition of human RKO cell growth in a cell viability assay.

KG-1 = conditions: Homo sapiens, KG-1;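 note: growth inhibition of KG-1 cells, read out by a cell viability assay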
Description: SANGER: Inhibition of human KG-1 cell growth in a cell viability assay.

SCC-15 = conditions: Homo sapiens, SCC-15;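 note: growth inhibition of SCC-15 cells, read out with a cell viability assay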
Description: SANGER: Inhibition of human SCC-15 cell growth in a cell viability assay.

GI-ME-N = conditions: Homo sapiens, GI-ME-N;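 note: growth inhibition of human GI-ME-N cells, read out with a cell viability assay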
Description: SANGER: Inhibition of human GI-ME-N cell growth in a cell viability assay.

DEL = conditions: Homo sapiens, DEL;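 note: growth inhibition of the human DEL cell line, read out with a cell viability assay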
Description: SANGER: Inhibition of human DEL cell growth in a cell viability assay.

MS-1 = conditions: Homo sapiens, MS-1
Description: SANGER: Inhibition of human MS-1 cell growth in a cell viability assay.

TE-6 = conditions: Homo sapiens, TE-6;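 note: growth inhibition of TE-6 cells, read out with a cell viability assay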
Description: SANGER: Inhibition of human TE-6 cell growth in a cell viability assay.

NB13 = conditions: Homo sapiens, NB13;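 note: cell viability readout measuring growth inhibition of human NB13 cells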
Description: SANGER: Inhibition of human NB13 cell growth in a cell viability assay.

SK-LMS-1 = conditions: Homo sapiens, SK-LMS-1;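 note: growth inhibition of human SK-LMS-1 cells, read out with a cell viability assay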
Description: SANGER: Inhibition of human SK-LMS-1 cell growth in a cell viability assay.

QIMR-WIL = conditions: Homo sapiens, QIMR-WIL;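 note: growth inhibition of QIMR-WIL cells, read out with a cell viability assay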
Description: SANGER: Inhibition of human QIMR-WIL cell growth in a cell viability assay.

Becker = conditions: Homo sapiens, Becker;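 note: growth inhibition of Becker cells, read out with a cell viability assay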
Description: SANGER: Inhibition of human Becker cell growth in a cell viability assay.

`O=C(O)c1ccc(-c2c[nH]c3ncc(-c4ccccc4)cc23)cc1C1CCCC1` [GSK-650394] gave a pIC50 (LB373-MEL-D) of less than 4.80, a pIC50 (J-RT3-T3-5) of less than 4.80 and a pIC50 (SNU-C2B) of less than 4.80. It also gave a pIC50 (KINGS-1) of less than 4.80, a pIC50 (MOLT-4) of less than 4.80 and a pIC50 (EW-13) of 5.52. For the same compound, the pIC50 (NCI-H1770) was 5.00, the pIC50 (A101D) was 5.03 and the pIC50 (A704) was less than 4.80. It also gave a pIC50 (SW 962) of less than 4.80, a pIC50 (SK-NEP-1) of less than 4.80 and a pIC50 (CTV-1) of less than 4.80. For the same compound, the pIC50 (MFM-223) was less than 4.80, the pIC50 (GT3TKB) was less than 4.80 and the pIC50 (MHH-PREB-1) was less than 4.80. The pIC50 (D-392MG) was less than 4.80, the pIC50 (D-263MG) was 4.86 and the pIC50 (HOP-62) was less than 4.80. The pIC50 (BT-474) was less than 4.80, the pIC50 (MLMA) was less than 4.80 and the pIC50 (OCI-AML2) was less than 4.80. It also gave a pIC50 (EKVX) of less than 4.80, a pIC50 (IST-MES1) of less than 4.80 and a pIC50 (OS-RC-2) of less than 4.80. It also gave a pIC50 (EW-1) of less than 4.80, a pIC50 (LAMA-84) of 4.99 and a pIC50 (DMS-79) of less than 4.80. The pIC50 (CW-2) was less than 4.80, the pIC50 (PSN1) was 5.66 and the pIC50 (EOL1) was 4.95. The pIC50 (LXF-289 cell line) was 5.85, the pIC50 (RPMI-8226) was less than 4.80 and the pIC50 (KMOE-2) was less than 4.80. The pIC50 (KURAMOCHI) was less than 4.80, the pIC50 (NCI-H1355) was less than 4.80 and the pIC50 (SW982) was 4.86. For the same compound, the pIC50 (BB65-RCC) was less than 4.80, the pIC50 (HT-144) was less than 4.80 and the pIC50 (RKO) was 5.80. For the same compound, the pIC50 (KG-1) was less than 4.80, the pIC50 (SCC-15) was less than 4.80 and the pIC50 (GI-ME-N) was less than 4.80. For the same compound, the pIC50 (DEL) was 5.29, the pIC50 (MS-1) was less than 4.80 and the pIC50 (TE-6) was less than 4.80. It also gave a pIC50 (NB13) of less than 4.80, a pIC50 (SK-LMS-1) of 5.27 and a pIC50 (QIMR-WIL) of 5.06. It also gave a pIC50 (Becker) of less than 4.80.
